The values that follow come from paper PMC9879939, “Synergy of ruthenium metallo-intercalator, [Ru(dppz)2(PIP)]^2+, with PARP inhibitor Olaparib in non-small cell lung cancer cells” (Scientific Reports, 2023).

Data set [1] relates to A549 lung cancer cells. Briefly: MTT assay (cell viability; CI and SI derived from it). It is filed as cell-based, human. The note with it: A549, max tested 100 μM, combinations: Ru-PIP gradient with fixed Olaparib. The procedure:
(§1) Cells were seeded in 96-well plates at 5 × 10^3 cells/well and allowed to adhere overnight. […] For drug combination treatment, cells were treated with concentration gradient of Ru-PIP (3.125–100 µM) in combination with Olaparib (5 or 10 µM). After 24, 48 or 72 h incubation, 0.5 mg/ml thiazolyl blue tetrazolium bromide (MTT) dissolved in 1X PBS was added to each well and cells were incubated at 37 °C for 4 h. 100 µl of DMSO was added to each well to solubilize the reduced purple formazan crystals formed. Next, the absorbance at 570 nm (630 nm as reference wavelength) was measured using a microplate reader. The half maximal inhibitory concentration (IC50) for each compound was determined using GraphPad Prism software. Additionally, selectivity indices (SI) were determined by the ratio between IC50 of normal cells and that of cancer cells.
(§2) Based on the data obtained from MTT assay, combination indices (CI) were determined using Calcusyn and CompuSyn software (Biosoft, Cambridge, UK). This is based on the established drugs combination method by Chou and Talalay[30],[31]. CI values indicate the type of drugs interaction in which CI < 0.9 indicates synergism, CI = 0.9–1.0 indicates additive and CI > 1.0 indicates antagonism. GraphPad Prism software was used to generate a three-color scale based on CI values obtained, where synergism is represented by green, additive by yellow, and antagonism by red in which the colors of each CI value were interpolated in between these constraints accordingly.

In data set [2] the test system is T24 bladder cancer cells. The description is as above. It is filed as cell-based, human. The note with it: T24, max tested 100 μM, combinations: Ru-PIP gradient with fixed Olaparib. The procedure:
as §1, §2

Data set [3] concerns H1975 lung cancer cells. The data set is described as above. It is filed as cell-based, human. The conditions noted are these: for IC50: H1975, max tested 100 μM, combinations: Ru-PIP gradient with fixed Olaparib. The procedure: as §1, §2
In data set [4] the test system is MRC5 normal human lung fibroblasts. Kind of data set: MTT assay (cell viability). It is filed as cell-based. The note with it: max tested 100 μM, combinations: Ru-PIP gradient with fixed Olaparib. The procedure: as §1
(Formazan colour is commonly taken as a measure of viable cells.)

For data set [5], the system named is A549 cells. Kind of data set: Apoptosis annexin V-FITC assay. The conditions noted are these: 24 h, Ru-PIP 25 µM or Olaparib 5 µM. It is filed as cell-based, human. The procedure: Lung cancer cells were seeded in 6-well plate at 1 × 10^5 cells/well and allowed to adhere overnight. Cells were treated with Ru-PIP (25 µM), Olaparib (5 µM) or both. After 24 or 48 h incubations, cells were harvested, washed with 1X PBS twice and 500 µl of 1X binding buffer was added to the samples. After, the samples were incubated with 5 µl Annexin V-FITC (Invitrogen) for 20 min at RT. Prior to flow cytometric analysis, 5 µl of PI was added. Samples were acquired was analyzed using NovoCyte flow cytometer and NovoExpress software. For each sample, a minimum of 10,000 cells were counted and analyzed.

Data set [6] relates to A549 cells. Briefly: Wound healing assay. It is filed as cell-based, human. The conditions noted are these: Olaparib 5 µM. The procedure:
Lung cancer cells were seeded at density of 5 × 10^5 cells/well in a 6-well plate and were incubated in the incubator until a confluent monolayer of cells formed. After serum-starved for 4 h, a straight scratch was made in each well with a sterile 200 µl pipette tip, solution was removed, and each well was washed with 1X PBS twice. Cells were treated with Ru-PIP (25 µM), Olaparib (5 µM) or both. Cells migration in the wound scratch area was photographed at 0, 24, 48 and 72 h timepoints. Images were photographed at 10 × magnification using a camera attached microscope and were analyzed using ImageJ software. The percentage of wound scratch closure was determined by measuring the reduction in the wound area at each time point by comparing to 0 h (100%).

The subject of data set [7] is A549 cells. Briefly: Cell cycle analysis (PI staining, flow cytometry). It is filed as cell-based, human. The conditions noted are these: Ru-PIP 25 µM, Olaparib 5 µM or both, 24 h. The procedure:
Lung cancer cells were seeded in 6-well plate at density of 1 × 10^5 cells/well and allowed to adhere overnight. Cells were treated with Ru-PIP (25 µM), Olaparib (5 µM) or both. After 24 or 48 h incubations, cells were harvested, washed with 1X PBS twice, and fixed with ice-cold 70% ethanol at least overnight at − 20 °C. The fixed cells were collected by centrifugation at 1,000 rpm for 5 min and the resulting pellets were washed with 1X PBS twice. The samples were resuspended in 500 µl PBS and treated with 5 µl RNase A solution (10 mg/ml) for 15 min at RT. After incubation, the samples were stained with 2 µl of propidium iodide (PI) solution (5 mg/ml) at RT, in the dark. Samples were acquired, and cell cycle distribution was analyzed using NovoCyte flow cytometer and NovoExpress software. For each sample, a minimum of 10,000 cells were counted and analyzed.
A general note: A flow cytometer gives signals particle by particle.

In data set [8] the test system is A549, H1975 and T24 cells. Kind of data set: MTT assay, summary statements over the cancer cell lines. It is filed as cell-based, human. The note with it: Homo sapiens; 72 h; A549, H1975 and T24 cells together; read-out: 72 h IC50 on the tested cancer cells. The procedure: as §1
The test system of data set [9] is A549 spheroids. Kind of data set: Spheroids growth inhibition studies. It is filed as cell-based, human. The note with it: Ru-PIP 25 µM, Olaparib 5 µM or both, 12 days after treatment initiation. The procedure: Spheroids establishment was attempted for A549 lung cancer cells using hanging drop method. 20 µL of cell suspension containing 2000, 4000, 6000, 8000 and 10,000 cells were dropped onto the surface of petri dish lid and incubated at 37 °C, such that each drop will contain single spheroid. After three days of incubation, each spheroid formed was transferred onto agarose-coated (50 µL, 0.6%) 96-well plates containing 80 µL growth media and further incubated for 15 days at 37 °C, such that each well contained a single spheroid. Formation of spheroids was observed and imaged every three days using a light microscope with a 4 × objective lens connected to a digital camera. During growth, 50% of the media was replaced every three days. The growth in volume of each spheroid was determined according to a published method. At least six spheroids were grown per seeding density for each independent experiment.
Spheroids were grown as described initially. Initial cell seeding density was chosen such that each spheroid reached a diameter of approximately 400 μm after three days (4,000 cells/well for A549 cells). After spheroids formation, spheroids were incubated with Ru-PIP (25 µM), Olaparib (5 µM) or both for a period of 12 days. The structural integrity of spheroids upon treatment was observed and imaged for every three days using a light microscope with a 4 × objective lens connected to a digital camera, and the volume of each spheroid was measured according to a published method. Prior to imaging, 50% of treatment-containing medium was replaced (every three days). At least six spheroids were grown per treatment for each independent experiment.

Data set [10] relates to zebrafish embryos. Kind of data set: Acute toxicity test on zebrafish embryos (OECD Test No. 236). The conditions noted are these: zebrafish embryos; > 25 mg/L. The procedure: (§3) The newly fertilized eggs at less than 1 hpf (hours post fertilization) were collected, washed with deionized water and incubated at RT (28 ± 1 °C) in Danio-SprintM embryo media. […] Untreated control consisting of Danio-SprintM embryo media containing 0.1% DMSO. 24 embryos were used in total for each concentration per treatment of two independent experiments (n = 24). The zebrafish embryos development was observed and imaged using a light microscope attached to a digital camera at 24, 48, 72 and 96 hpf (hours post fertilization). Four lethal endpoints were evaluated including coagulated embryos, lack of somite formation, non-detachment of the tail and lack of heartbeat. All these characteristics were recorded every 24 hpf, except heartbeat, which is visible after 48 hpf. […] Hatching which is also considered as a sensitive endpoint toxicity parameter was also observed in which hatching normally occurs at 48 to 72 hpf.

Data set [11] is described as follows: in vivo. The note with it: zebrafish, in vivo. The procedure: as §3

Usually IC50 stands for the midpoint of a concentration-inhibition curve. For `N.N.[Cl][Pt][Cl]` [Cisplatin, cis-diamminedichloroplatinum(II)], the IC50 in [1] (24 h) was determined as 6.6 ± 2 µM; in data set [1] (48 h), 4.8 ± 0.5 µM; in data set [1] (72 h), 2.9 ± 1.2 µM; in [2] (24 h) it was 59.6 ± 7 µM; in data set [2] (48 h) it was 20.8 ± 7.2 µM; in data set [2] (72 h), 7.3 ± 1.1 µM. Moreover, the IC50 in data set [3] (24 h) was determined as 26.6 ± 9.9 µM; in [3] (48 h), 20 ± 6.7 µM; in [3] (72 h), 13.5 ± 5.7 µM; in data set [4] (24 h), 13.5 ± 2.4 µM; in data set [4] (48 h) it was 9.5 ± 1.2 µM; in data set [4] (72 h) it was 7.4 ± 2 µM.
As usually defined, the LC50 is the concentration that kills 50% of the test population. As to `O=C(c1cc(Cc2n[nH]c(=O)c3ccccc23)ccc1F)N1CCN(C(=O)C2CC2)CC1` [Olaparib], the “levels of apoptotic cells” value in [5] is on record as “comparable levels of apoptotic cells with untreated control”. In addition, the “impact on cell migration” value in data set [6] was “negligible impact on cell migration”. The cell cycle profile entry in data set [7] was “comparable cell cycle profile with the untreated control”. Besides, the IC50 in data set [1] (Homo sapiens, 24 h) was over 100 µM; in data set [1] (Homo sapiens, 48 h), over 100 µM; in data set [1] (Homo sapiens, 72 h) it was over 100 µM; in data set [2] (Homo sapiens, 24 h), over 100 µM; in [2] (Homo sapiens, 48 h) it was over 100 µM; in data set [2] (Homo sapiens, 72 h), over 100 µM. For the same compound, the IC50 in data set [3] (Homo sapiens, NCI-H1975, 24 h) is over 100 µM; in data set [3] (Homo sapiens, NCI-H1975, 48 h), over 100 µM; in [3] (Homo sapiens, NCI-H1975, 72 h), 71.7 ± 11.8 µM; in data set [8], over 71.7 µM; in data set [4] (Homo sapiens, 24 h), over 100 µM; in data set [4] (Homo sapiens, 48 h) it was over 100 µM. The IC50 in [4] (Homo sapiens, 72 h) was over 100 µM. Moreover, the “Selectivity Index (SI) = IC50 normal cells/IC50 cancer cells” value in data set [3] (MRC5 vs H1975, 72 h) was over 1.3. The “structural integrity of pre-formed spheroids” value in data set [9] is on record as “remained structurally intact”. Besides, in [10], the “morphological changes of embryos” value is “substantial morphological abnormalities of pericardial edema, yolk sac edema and spinal deformity”. This compound also showed an LC50 at 96 h in [11] of over 100 µg/mL.
